Experimental data reported in paper PMC10571957, “αV-Integrin-Dependent Inhibition of Glioblastoma Cell Migration, Invasion and Vasculogenic Mimicry by the uPAcyclin Decapeptide” (Cancers, 2023).

Assays:
[1] = test system: U251-MG cells (αV integrin); assay: FITC-uPAcyclin receptor binding/competition, U251-MG; design: species or system human; settings: unlabeled uPAcyclin vs FITC-uPAcyclin, 4 °C
Procedure: The U87-MG, U251-MG, and U138-MG cell lines were harvested and acid-treated, as described. Then, 2 × 10^6 cells/sample were exposed for 30 min at 4 °C to uPAcyclin or S-uPAcyclin at the indicated concentrations, or with the following antibodies: VNR147 monoclonal anti-αV integrin (Chemicon Int. Inc., Temecula, CA, USA), polyclonal anti-αV (Millipore, Burlington, MA, USA), monoclonal anti-α2 (Chemicon Int. Inc., Temecula, CA, USA), polyclonal anti-actin (Sigma-Aldrich, St. Louis, MO, USA), monoclonal anti-GAPDH (Abcam, Cambridge, UK), and purified vitronectin (VN, Corning, Glendale, AZ, USA). The cells were subsequently incubated with 50 nM FITC-uPAcyclin for 2 h at 4 °C, as described. At the end of incubation, the cells were washed and the cell surface-associated fluorescence was determined using a fluorimeter (VICTOR^TM X3-PerkinElmer, Waltham, MA, USA). All binding assays were performed three times, with duplicate samples, and analyzed as described in Section 2.11.
Figure 2 αV expression of U87-MG, U251-MG, and U138-MG GBM cells and specific binding of FITC-uPAcyclin. […] At the end of the incubation, the unbound material was washed and cell-associated FITC-uPAcyclin was quantitated by a fluorimeter. The net value of cell-surface-associated fluorescence, corresponding to the specific binding, is shown. […]

breast cancer cell lines = settings: ref Belli et al. [25]; cited from earlier work
U251-MG cells = assay: Vasculogenic mimicry (tube formation on Geltrex), U251-MG; format: cell-based, human; settings: 24 h
Procedure: (§1) The tube formation assay was performed in 96-well plates pre-coated with 50 µL/well of Geltrex^TM (Thermofisher, Scientific, Waltham, MA, USA), and polymerized for 30 min at 37 °C. Briefly, 3 × 10^4 U87-MG, 1.5 × 10^4 U251, and 1 × 10^4 C6 cells/100µL/well were plated onto Geltrex^TM and monitored at 37 °C for the indicated times. The specific effectors were included at time 0. The formation of vascular-like structures by Geltrex^TM-plated U87-MG and U251-MG cells was monitored for 24 h, whereas C6 cells were tested for 16 h. The evaluation of the branching point number, defined as the intersection of at least 3 tubes [24], was performed using the Inverted Microscope DMI Leica 6000 for the U87-MG and U251-MG cells and the Inverted Microscope Axiovert 25 for the C6 cells. At the indicated times, the number of “branching points” was assessed in 4/5 random fields using the ImageJ 1.52a Software.
Figure 8 Vascular mimicry formation and VE-cadherin expression inhibited by uPAcyclin in U251-MG cells. […] (B) The quantitation of the branching point number is described in the legend to Figure 6B. […] The densitometric quantitation of VE-cadherin bands is shown (right panel) (* p-value < 0.05; *** p-value < 0.001).

C6 cells = assay: Vasculogenic mimicry (tube formation on Geltrex), C6; format: cell-based, rat; settings: C6, 16 h
Procedure: as §1
Figure 7 Vascular mimicry formation by C6 rat cells and inhibition by uPAcyclin. […] (B) After 16 h, the number of branching points was evaluated as described in the legend to Figure 5 and reported in the relative histogram (*** p-value < 0.001).

[2] = test system: cancer-associated fibroblasts (CAFs) from breast cancer patients; settings: ref [30]; cited from earlier work
Description: Thus, in the present work, we investigated the effects of the anti-migratory uPAcyclin decapeptide, binding to the αV integrin subunit. This cyclic decapeptide is derived from a non-catalytic region of the human urokinase (uPA) plasminogen activator. The growth factor domain (GFD, residues 1–49) and the connecting peptide region (CP, residues 132–158) confer to the full uPA a clearcut motogen activity. While the GFD binds to the urokinase receptor (uPAR), the CP region binds to the αV integrin subunit.

## Ac-K^1P[ESPPEELK^10]-NH2 (sidechain bridge or staple) [uPAcyclin]
[1]
  Kdapp: low nanomolar range
Breast cancer cell lines
  migration and invasion inhibition: potent inhibitor of migration and invasion of breast cancer cell lines
U251-MG cells; 1 nM
  branching number per field decreased to: 20%
U251-MG cells; 100 nM
  branching number per field decreased to: 15%
C6 cells; 10 pM
  inhibition of branching point number: 40%
C6 cells; 100 nM
  inhibition of branching point number: 60%
[2]
  pro-invasive ability of CAFs: inhibited the pro-invasive ability of cancer-associated fibroblasts
